Measurements: ChEMBL document CHEMBL1130841, “Evaluation of phosphorus-containing inhibitors of gamma-glutamyl hydrolase” (Bioorg Med Chem Lett, 1998)

Key:
[1] = Phosphorylation rate constant was evaluated.; assay type: ADME
Gamma-glutamyl hydrolase = molecular target: T1, Gamma-glutamyl hydrolase (Homo sapiens, UniProt Q92820); experiment: Compound was tested for inhibitory potency against gamma-Glutamyl Hydrolase.
T1 sequence (Q92820 whole entry): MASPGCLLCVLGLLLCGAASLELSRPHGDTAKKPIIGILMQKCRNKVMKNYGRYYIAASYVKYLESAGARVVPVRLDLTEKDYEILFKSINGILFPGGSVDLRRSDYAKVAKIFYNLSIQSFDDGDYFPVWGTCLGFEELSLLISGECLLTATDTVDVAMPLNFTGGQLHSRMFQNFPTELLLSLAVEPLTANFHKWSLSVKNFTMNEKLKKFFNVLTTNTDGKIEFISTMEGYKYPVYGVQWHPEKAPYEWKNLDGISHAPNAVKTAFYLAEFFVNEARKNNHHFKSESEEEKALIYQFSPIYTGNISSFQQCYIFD

[2] = Dissociation constant was evaluated.; assay type: physicochemical

SMILES	kp [1] [min⁻¹]	Ki (Gamma-glutamyl hydrolase)	Kd [2] [M⁻¹]
COP(=O)(N[C@@H](CCC(=O)O)C(=O)O)c1ccccc1 (some centres not stated)	7.24	0.264 M⁻¹	27.4
COP(=O)(N[C@@H](CCC(=O)O)C(=O)O)OC	2.42	10.9 M⁻¹	0.223
O=C(O)CC[C@H](NP(=O)(O)c1ccccc1)C(=O)O	–	950 pM	–
